{
  "source": "patent US20120101147A1",
  "about": "“INHIBITION OF HDAC2 TO PROMOTE MEMORY” (The General Hospital Corporation d/b/a Massachusetts …, priority 2008, published 2012)",
  "key": {"H2B acetylation": {"system": "H2B acetylation", "experiment": "Immunofluorescence: H2B acetylation in primary neuronal cell cultures", "type": "cell-based, mouse", "conditions": "1 and 10 uM; 6 h; primary neuronal cell cultures", "protocol": "(§1) 1) Compounds were pin transferred from 384-well plates (Abgene) using a 185 nl pin tool using a no touch bottom protocol.\n(§2) 1) Media was aspirated using a plate washer (Tecan) protocol that leaves ˜5 ul residual volume and without touching the bottom of plates); or alternatively, wells were gently aspirated to remove media with 12-channel aspirator wand.\n(§3) 2) A multichannel pipet or use liquid handling system (e.g. Combi, standard tubing; slow speed) was used to add 75 ul formaldehyde (4% in PBS) and wells incubated 10 min at room temperature.\n(§4) 3) Formaldehyde was aspirated and cells rinsed 3 times with 100 ul PBS;\n(§5) 4) PBS was aspirated and 100 ul blocking/permeablization buffer (0.1% Triton-X100, 2% BSA, in PBS) added and wells incubate 1 hour at room temperature.\n(§6) 5) Blocking buffer was aspirated and 50 ul primary antibody diluted 1:500 in blocking buffer was added and wells incubated overnight at 4 degrees.\n(§7) 1) Primary antibody was aspirated and wells rinsed 3 times with 100 ul blocking buffer\n(§8) 2) 50 ul of secondary antibody diluted 1:500 and with Hoeschst (1:1000 from 10 mg/mL (16 mM) stock) added and wells incubated 1.5 hours at room temperature covered in foil to prevent photobleaching.\n(§9) 3) Wells were rinsed 3 times with 100 ul PBS, and a 100 uls of PBS added and the plates, sealed\n(§10) 4) Plates were then read on Acumen/IX Micro"}, "[1]": {"system": "primary neuronal cultures", "experiment": "Immunofluorescence: overall cell number in primary neuronal cultures", "type": "cell-based, mouse", "conditions": "1 and 10 uM; 6 h; primary neuronal cell cultures", "protocol": "as §1, §2, §3, §4, §5, §6, §7, §8, §9, §10"}, "tetra-acetylated H4": {"system": "tetra-acetylated H4", "experiment": "Western blot of tetra-acetylated H4 in primary striatal cells", "type": "cell-based, mouse", "conditions": "relative to DMSO controls", "protocol": "(§11) Four compounds were tested including CI-994 (BRD-3696) and SAHA. […] BRD-6929 and BRD-5298 treatment results in a 2-5 fold increase in both marks at 1 and 10 uM."}, "tetra-acetylated H2B": {"system": "tetra-acetylated H2B", "experiment": "Western blot of tetra-acetylated H2B in primary striatal cells", "type": "cell-based, mouse", "conditions": "relative to DMSO controls", "protocol": "as §11"}, "mice": {"system": "mice", "experiment": "Context-dependent fear conditioning memory test", "type": "in vivo, mouse", "protocol": "Fear conditioning tests Context-dependent fear conditioning. Training consists of a 3 min exposure of mice to the conditioning box (context) followed by a foot shock (2 sec, 0.5/0.8/1.0 mA, constant current). The memory test was performed 24 hr later by re-exposing the mice for 3 min into the conditioning context. Freezing, defined as a lack of movement except for heart beat and respiration associated with a crouching posture, was recorded every 10 sec by two trained observers (one was unaware of the experimental conditions) during 3 min (a total of 18 sampling intervals). The number of observations indicating freezing obtained as a mean from both observers was expressed as a percentage of the total number of observations.\nChemical administration Suberoylanilide hydroxamic acid (SAHA) was synthesized as described previously in WO 93/07148 PTC/US92/08454. Sodium butyrate was purchased from Sigma (cat.B5887). SAHA and WT-161 were dissolved in DMSO as stock solutions and diluted in saline just before injection. Sodium butyrate was prepared in saline. Mice received intraperitoneal injection daily with either SAHA or saline for 10 days or 21 days.\nC57/BL6 WT mice were injected with vehicle or BRD-6929 for 10 days. On day 11, mice were trained in contextual fear conditioning paradigm (Training consisted of a 3 min exposure of mice to the conditioning box (context, TSE) followed by a foot shock (2 sec, 0.8 mA, constant current). One hour after training, mice were injected with BRD-6929 or vehicle. On day 12, mice were returned to the training box and the freezing behavior were monitored and recorded."}, "c-fos": {"system": "c-fos", "experiment": "c-fos positive cells after fear conditioning training", "type": "in vivo, mouse", "conditions": "compared to saline treated group", "description": "Studies described in the Examples below were also undertaken to determine which of the 11 histone deacetylases is responsible for the observed function and to identify selective HDAC inhibitors for enhancing memory. […] Remarkably, HDAC2 neuron specific knockout mice (loss of function) display enhanced learning. […] Thus it was unexpected that HDAC1/HDAC2 inhibitors would be useful for enhancing memory."}, "[2]": {"system": "CA1 region of hippocampus", "experiment": "Golgi staining and synaptophysin immunostaining of hippocampal CA1", "type": "in vivo, mouse", "protocol": "Memory test for mice with contextual fear conditioning training (foot shock 1.0 mA). HDAC2OE mice (SAHA group, n=12; saline group, n=12) and WT littermates (SAHA group, n=12; saline group, n=15) were treated with saline or SAHA (25 mg/kg, i.p.) for 10 days before memory test. b. CA1 region (pyramidal neuron layer; stratum radiatum (s.r.)) from WT and HDAC2OE mice received chronic SAHA treatment or saline treatment and were observed through immunostaining. Average optical signals for Ac-lysine were measured on pyramidal neuron layer; SVP signals were measured from s.r. c. Images of Golgi staining from CA1 region of hippocampus. For WT, naive, n=23; WT, SAHA, n=41; HDAC2OE, naïve, n=21; HDAC2OE, SAHA, n=32. Scale bar 10 μm. d. Memory test for mice with contextual fear conditioning training (foot shock 0.5 mA) after 10 day SAHA injection (25 mg/kg, i.p.). WT mice (SAHA, n=10; saline, n=10) and HDAC2 KO mice (SAHA, n=8; saline, n=8). e. CA1 region from HDAC2KO mice received chronic SAHA treatment or saline treatment and were observed through immunostaining. SVP-singles were quantified in the s.r. Saline, n=15; SAHA, n=22. Scale bar=50 μm. f. Images of Golgi staining of CA1 region of hippocampus from HDAC2KO mice. HDAC2KO, SAHA, n=24; HDAC2KO, naïve, n=27. *, p<0.05; **, p<0.005; ***,p<0.001, unpaired student t-test error bars indicate s.e.m.\nGolgi impregnation Golgi-Cox-stained brains were cut to 200 μm thick cross-sections with vibratome and analyzed using a Zeiss 200 Axiovert microscope and Openlab software. The number of apical and basal spines on hippocampal CA1 pyramidal neurons was counted blind to the genotype. For each experimental group, a minimum of 10 cells per slice (animal number n=3) were analyzed. CA1 hippocampal neurons within the region −1.4 mm to −1.6 mm (relative to the bregma position) were included for the analysis.\nImmunohistochemistry Immunohistochemical analysis was performed as described before (Guan, J. S., et al., Cell, 2005. 122(4): p. 619-31.). Antibodies were used in a 1:1000 concentration. […] Staining was quantified using LSMetal0 software (Zeiss)."}, "hippocampus": {"system": "hippocampus", "experiment": "Long-term potentiation (LTP) in hippocampal slices of treated mice", "type": "in vivo, mouse", "conditions": "25 mg/kg i.p. 10 days, one HFS 1×100 Hz", "protocol": "FIG. 6 SAHA treatment facilitates LTP in WT but not HDAC2KO hippocampus. a-b. One-month-old HDAC2KO mice and their WT littermates were injected with SAHA (25 mg/kg, i.p.) or saline for 10 days. An additional injection was introduced 30 minutes before sacrifice. Long-term potentiation (LTP) was induced by one HFS stimulation (1×100 Hz, 1 s) of Schaffer collaterals. a. […] (**, p<0.005, two-way ANOVA).\nElectrophysiological analysis. 3-6 months old HDAC2OE, HDAC2KO or their littermates were killed by cervical dislocation, and hippocampi were rapidly dissected in iced oxygenated artificial CSF (ACSF). Transverse hippocampal slices, 400 μm thick were placed in a chamber and continuously perfused with oxygenated ACSF. A bipolar stimulating electrodes (0.002-inch-diameter nichrome wire; A-M Systems) placed in the stratum radiatum was used to elicit action potentials in CA3 axons. An ACSF-filled glass microelectrode with a resistance between 0.5 and 3 MΩ was placed in the stratum radiatum region of CA1 and was used to record the field excitatory post-synaptic potentials (fEPSP). Data were acquired using HEKA EPC10 and analyzed by patchmaster (HEKA). […] Baseline responses were recorded for 20 min. fEPSP were evoked at the CA1 synapses by stimulating Schaffer collaterals at a low frequency (2 per min) to establish a stable baseline. […]"}, "HDAC6": {"target": "T1, HDAC6 (Homo sapiens, UniProt Q9UBN7)", "T1 sequence (Q9UBN7 1-1215)": "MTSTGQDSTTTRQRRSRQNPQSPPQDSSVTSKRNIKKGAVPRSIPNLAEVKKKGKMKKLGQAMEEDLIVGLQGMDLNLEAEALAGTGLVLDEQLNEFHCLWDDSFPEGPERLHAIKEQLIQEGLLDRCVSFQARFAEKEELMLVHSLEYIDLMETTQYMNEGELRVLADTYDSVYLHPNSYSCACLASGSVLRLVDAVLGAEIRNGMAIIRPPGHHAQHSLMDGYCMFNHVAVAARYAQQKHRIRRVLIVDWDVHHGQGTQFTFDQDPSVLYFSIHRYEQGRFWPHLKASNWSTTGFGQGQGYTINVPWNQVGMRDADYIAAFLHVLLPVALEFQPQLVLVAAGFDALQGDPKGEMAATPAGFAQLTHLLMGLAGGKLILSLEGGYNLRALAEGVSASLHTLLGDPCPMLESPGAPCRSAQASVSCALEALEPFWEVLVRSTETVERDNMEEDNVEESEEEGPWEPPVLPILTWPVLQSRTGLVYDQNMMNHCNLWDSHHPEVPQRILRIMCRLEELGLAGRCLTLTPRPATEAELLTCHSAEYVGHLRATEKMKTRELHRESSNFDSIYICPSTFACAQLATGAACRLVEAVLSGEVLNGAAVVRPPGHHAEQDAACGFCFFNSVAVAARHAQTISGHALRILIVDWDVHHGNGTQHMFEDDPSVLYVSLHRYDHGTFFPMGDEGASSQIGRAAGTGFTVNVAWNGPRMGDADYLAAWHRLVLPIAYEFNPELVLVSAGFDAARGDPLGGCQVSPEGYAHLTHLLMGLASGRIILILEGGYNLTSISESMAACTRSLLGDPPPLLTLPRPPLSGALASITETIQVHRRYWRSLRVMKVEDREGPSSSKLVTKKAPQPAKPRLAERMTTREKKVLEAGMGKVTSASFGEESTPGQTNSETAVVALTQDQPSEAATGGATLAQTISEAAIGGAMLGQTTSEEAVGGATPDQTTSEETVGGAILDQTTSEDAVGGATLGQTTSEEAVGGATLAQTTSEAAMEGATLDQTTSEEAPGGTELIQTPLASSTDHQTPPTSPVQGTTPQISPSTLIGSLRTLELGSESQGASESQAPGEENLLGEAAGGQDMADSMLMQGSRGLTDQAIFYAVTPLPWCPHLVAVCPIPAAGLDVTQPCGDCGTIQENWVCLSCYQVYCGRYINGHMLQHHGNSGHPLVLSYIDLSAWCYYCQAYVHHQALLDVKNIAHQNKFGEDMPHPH", "conditions": "cited from earlier work"}, "[3]": {"conditions": "HDAC2KO mice, chronic treatment"}},
  "note": "“Also recorded” adds a separate entry of the source.",
  "data": [
    {"smiles": "CN1CCN(CCNC(=O)c2ccc(C(=O)Nc3cc(-c4cccs4)ccc3N)cc2)CC1", "note": "[BRD-5298, N1-(2-amino-5-(thiophen-2-yl)phenyl)-N4-(2-(4-methylpiperazin-1-yl)ethyl)terephthalamide]", "values": [
      {"measurement": "H2B acetylation", "setting": "H2B acetylation", "result": "significant increase"},
      {"measurement": "overall cell number", "setting": "[1]", "result": "do not cause an increase or decrease"},
      {"measurement": "tetra-acetylated H4", "setting": "tetra-acetylated H4", "result": "significantly increased"},
      {"measurement": "tetra-acetylated H2B", "setting": "tetra-acetylated H2B", "result": "trend toward increasing"}
    ]},
    {"smiles": "Nc1ccccc1NC(=O)c1ccc(CNC(=O)OCc2cccnc2)cc1", "note": "[MS-275]", "values": [
      {"measurement": "associative learning in mice", "setting": "mice; mouse, in vivo", "result": "did not facilitate"},
      {"measurement": "number of c-fos positive cells after fear conditioning training", "setting": "c-fos", "result": "lower number"}
    ]},
    {"smiles": "O=C(CCCCCCC(=O)Nc1ccccc1)NO", "note": "[SAHA, suberoylanilide hydroxamic acid]", "values": [
      {"measurement": "dendritic spine density of CA1 neurons", "setting": "[2]; [3]", "result": "not significantly affected"},
      {"measurement": "synaptophysin staining in the stratum radiatum", "setting": "[2]; [3]", "result": "not significantly affected"},
      {"measurement": "decreased dendritic spine and synapses phenotype", "setting": "[2]; HDAC2OE mice, chronic treatment 25 mg/kg i.p.", "result": "completely abrogated"},
      {"measurement": "LTP", "setting": "hippocampus; HDAC2 KO hippocampus", "result": "did not have a detectable effect; also recorded: No significant difference"},
      {"measurement": "LTP", "setting": "hippocampus; WT hippocampus", "result": "modestly increased; also recorded: significant increase"},
      {"measurement": "freezing behavior", "setting": "mice; HDAC2KO mice, 25 mg/kg i.p. 10 days, foot shock 0.5 mA, n=8", "result": "52.1±9.8", "unit": "%"},
      {"measurement": "freezing behavior", "setting": "mice; HDAC2OE mice, 25 mg/kg i.p. daily 10 days, foot shock 1.0 mA, n=12", "result": "66.7±5.1", "unit": "%"},
      {"measurement": "freezing behavior", "setting": "mice; WT control mice, 25 mg/kg i.p. 10 days, foot shock 0.5 mA, n=10", "result": "45.0±6.9", "unit": "%"},
      {"measurement": "freezing behavior", "setting": "mice; WT control mice, 25 mg/kg i.p. daily 10 days, foot shock 1.0 mA, n=12", "result": "63.9±4.2", "unit": "%"}
    ]},
    {"smiles": "CCCC(=O)[O-].[Na+]", "note": "[SB, sodium butyrate]", "values": [
      {"measurement": "inhibition of HDAC6 activity in vitro", "setting": "HDAC6", "result": "does not inhibit"}
    ]}
  ]
}
